# Like-named read-outs stand apart in the source and are kept apart here.
# Key:
# copper [1] = system: copper
# Method: Study 204 is registered with ClinicalTrials.gov, number NCT04573309, and is described in Example 1 of U.S. Provisional Patent Application No. 63/237,120, filed Aug. 25, 2021, and incorporated by reference herein. […] The participants remained on a Cu-controlled diet, and Cu and Mo balance were measured on all intake (i.e., investigational agent, food and fluids) and all output (urine and feces). The Cu and Mo concentration of each sample was determined by inductively coupled plasma mass spectrometry (ICP-MS). Copper and Mo content of all intake and output was calculated based on the volume or weight of intake and output and the concentration of representative samples.
# Collection periods for feces and urine varied in duration from 3 to 15 days to support assessment of both Cu and Mo balance before and at steady state for both 15 mg and 30 mg. Equilibration periods on Cu/Mo-controlled diets were a minimum of 48 hours. Copper balance was calculated as the mean daily Cu balance over each of the 4 collection periods. The interpretation of Cu balance was based on the criteria previously established when undertaking Cu balance studies with zinc treatment.
# These participants had all intake (food and drink) and output (urine and feces) collected from Day-4 through Day-1 (baseline), from Day 1 through Day 8, and Day 25 through Day 39.
# copper [2] = conditions: Study 201, BC-TTM monotherapy, Week 24
# [3] = human, in vivo
# ^64Cu in blood = system: ^64Cu in blood
# Method: 15 minutes after intravenous administration of ^64Cu, a dynamic PET-MR scan was performed, followed by additional scans at 1, 2, 6, 20, 48, 54, and 68 hours. Venous blood samples were collected for quantitation of radioactivity at multiple time points.
# [4] = Study 204, Days 1-8 (Accumulation 15 mg/day)
# [5] = Study 204, Days 25-28 (Steady State 15 mg/day)
# [6] = Study 204, Days 31-35 (Accumulation 30 mg/day)
# [7] = Study 204, Days 36-39 (Steady State 30 mg/day)
substance,measurement,setting,value
Bis-choline tetrathiomolybdate [BC-TTM],"Daily Net Copper Balance, Change from Baseline, Median (IQR)",copper [1]; [4],−0.4291 (0.2176) mg
same,"Daily Net Copper Balance, Value, Mean (SD)",copper [1]; [4],0.7654 (0.3538) mg
same,"Daily Net Copper Balance, Value, Median (IQR)",copper [1]; [4],0.6678 (0.6871) mg
same,"Increase from Baseline in Average Daily Fecal Copper Excretion, Mean (SD)",copper [1]; [4],0.3278 (0.319) mg
same,"Increase from Baseline in Average Daily Urine Copper Excretion, Mean (SD)",copper [1]; [4],−0.0108 (0.01119) mg
same,"Daily Net Copper Balance, Change from Baseline, Median (IQR)",copper [1]; [5],−0.1459 (1.0434) mg
same,"Daily Net Copper Balance, Value, Mean (SD)",copper [1]; [5],0.7638 (0.9138) mg
same,"Daily Net Copper Balance, Value, Median (IQR)",copper [1]; [5],1.1434 (1.7052) mg
same,"Increase from Baseline in Average Daily Fecal Copper Excretion, Mean (SD)",copper [1]; [5],0.4931 (0.4955) mg
same,"Increase from Baseline in Average Daily Urine Copper Excretion, Mean (SD)",copper [1]; [5],0.1042 (0.08556) mg
same,"Daily Net Copper Balance, Change from Baseline, Median (IQR)",copper [1]; [6],−0.3707 (0.1093) mg
same,"Daily Net Copper Balance, Value, Mean (SD)",copper [1]; [6],0.8577 (0.3427) mg
same,"Daily Net Copper Balance, Value, Median (IQR)",copper [1]; [6],0.8312 (0.6838) mg
same,"Increase from Baseline in Average Daily Fecal Copper Excretion, Mean (SD)",copper [1]; [6],0.3879 (0.4193) mg
same,"Increase from Baseline in Average Daily Urine Copper Excretion, Mean (SD)",copper [1]; [6],0.0744 (0.05427) mg
same,"Daily Net Copper Balance, Change from Baseline, Median (IQR)",copper [1]; [7],−0.4225 (0.2275) mg
same,"Daily Net Copper Balance, Value, Mean (SD)",copper [1]; [7],0.8582 (0.2565) mg
same,"Daily Net Copper Balance, Value, Median (IQR)",copper [1]; [7],0.7986 (0.5024) mg
same,"Increase from Baseline in Average Daily Fecal Copper Excretion, Mean (SD)",copper [1]; [7],0.0899 (0.2021) mg
same,"Increase from Baseline in Average Daily Urine Copper Excretion, Mean (SD)",copper [1]; [7],0.1042 (0.04328) mg
same,"Daily Net Copper Balance, Change from Baseline, Mean (SD)","copper [1]; Study 204, Table 10, Days 1-8 (Accumulation 15 mg/day)",−0.4848 (0.119) mg
same,"Daily Net Copper Balance, Change from Baseline, Mean (SD)","copper [1]; Study 204, Table 10, Days 25-28 (Steady State 15 mg/day)",−0.4865 (0.5993) mg
same,"Daily Net Copper Balance, Change from Baseline, Mean (SD)","copper [1]; Study 204, Table 10, Days 31-35 (Accumulation 30 mg/day)",−0.3925 (0.05781) mg
same,"Daily Net Copper Balance, Change from Baseline, Mean (SD)","copper [1]; Study 204, Table 10, Days 36-39 (Steady State 30 mg/day)",−0.3921 (0.1168) mg
same,"Decrease from Baseline in Average Daily Net Copper Balance, Change from Baseline Mean (SD)","copper [1]; Study 204, Table 13, Days 1-8 (Accumulation 15 mg/day)",−0.4848 (0.119) mg
same,"Decrease from Baseline in Average Daily Net Copper Balance, Change from Baseline Mean (SD)","copper [1]; Study 204, Table 13, Days 1-39",−0.448 (0.1469) mg
same,"Decrease from Baseline in Average Daily Net Copper Balance, Change from Baseline Mean (SD)","copper [1]; Study 204, Table 13, Days 25-28 (Steady State 15 mg/day)",−0.6381 (0.7673) mg
same,"Decrease from Baseline in Average Daily Net Copper Balance, Change from Baseline Mean (SD)","copper [1]; Study 204, Table 13, Days 31-35 (Accumulation 30 mg/day)",−0.3925 (0.05781) mg
same,"Decrease from Baseline in Average Daily Net Copper Balance, Change from Baseline Mean (SD)","copper [1]; Study 204, Table 13, Days 36-39 (Steady State 30 mg/day)",−0.2765 (0.3138) mg
same,reduction of mean serum cNCCcorrected compared with baseline,copper [2],72%
same,covariate effect of age on plasma total molybdenum clearance,[3],age is not a significant covariate
same,Intravenously injected ^64Cu in the blood,"^64Cu in blood; Post (after BC-TTM treatment), 5 sec",0.05
same,Intravenously injected ^64Cu in the blood,"^64Cu in blood; Post (after BC-TTM treatment), 15 sec",1.02
same,Intravenously injected ^64Cu in the blood,"^64Cu in blood; Post (after BC-TTM treatment), 60 sec",4.16
same,Intravenously injected ^64Cu in the blood,"^64Cu in blood; Post (after BC-TTM treatment), 120 sec",3.47 (4.65)
same,Intravenously injected ^64Cu in the blood,"^64Cu in blood; Post (after BC-TTM treatment), 200 sec",5.01
same,Intravenously injected ^64Cu in the blood,"^64Cu in blood; Post (after BC-TTM treatment), 300 sec",6.99
same,Intravenously injected ^64Cu in the blood,"^64Cu in blood; Post (after BC-TTM treatment), 600 sec",7.03
same,Intravenously injected ^64Cu in the blood,"^64Cu in blood; Post (after BC-TTM treatment), 1 hour",5.43
same,Intravenously injected ^64Cu in the blood,"^64Cu in blood; Post (after BC-TTM treatment), 2 hours",5.09
same,Intravenously injected ^64Cu in the blood,"^64Cu in blood; Post (after BC-TTM treatment), 6 hours",2.54
same,Intravenously injected ^64Cu in the blood,"^64Cu in blood; Post (after BC-TTM treatment), 20 hours",0.77 (0.41)
same,Intravenously injected ^64Cu in the blood,"^64Cu in blood; Post (after BC-TTM treatment), 48 hours",0.51
same,Intravenously injected ^64Cu in the blood,"^64Cu in blood; Post (after BC-TTM treatment), 54 hours",0.42
same,Intravenously injected ^64Cu in the blood,"^64Cu in blood; Post (after BC-TTM treatment), 68 hours",0.42
same,Intravenously injected ^64Cu in the blood,"^64Cu in blood; Pre (before BC-TTM treatment), 5 sec",0.00
same,Intravenously injected ^64Cu in the blood,"^64Cu in blood; Pre (before BC-TTM treatment), 15 sec",0.00
same,Intravenously injected ^64Cu in the blood,"^64Cu in blood; Pre (before BC-TTM treatment), 60 sec",5.30
same,Intravenously injected ^64Cu in the blood,"^64Cu in blood; Pre (before BC-TTM treatment), 120 sec",5.15 (4.28)
same,Intravenously injected ^64Cu in the blood,"^64Cu in blood; Pre (before BC-TTM treatment), 200 sec",5.13
same,Intravenously injected ^64Cu in the blood,"^64Cu in blood; Pre (before BC-TTM treatment), 300 sec",5.88
same,Intravenously injected ^64Cu in the blood,"^64Cu in blood; Pre (before BC-TTM treatment), 600 sec",4.35
same,Intravenously injected ^64Cu in the blood,"^64Cu in blood; Pre (before BC-TTM treatment), 1 hour",0.78
same,Intravenously injected ^64Cu in the blood,"^64Cu in blood; Pre (before BC-TTM treatment), 2 hours",0.64
same,Intravenously injected ^64Cu in the blood,"^64Cu in blood; Pre (before BC-TTM treatment), 6 hours",0.42
same,Intravenously injected ^64Cu in the blood,"^64Cu in blood; Pre (before BC-TTM treatment), 20 hours",0.32 (0.06)
